Key:
salivary TNFα = test: Salivary TNFα levels (ELISA) and cachexia symptoms in cachexic cancer patients under oral treatment; format: in vivo, human
Description: Endogenous TNFα production can be measured by ELISA. The data reported herein used the Peprotech human TNFα kit (catalog 900-T25) following directions of the manufacturer. Alternative ELISA methods, not relying on commercial manufacturers, could be employed. […] This standard curve was used to calculate TNFα production in various organs and in saliva as presented herein.
The stabilization step may involve known methods for stabilizing TNFα, such as those described by Lee et al. (2017), incorporated herein by reference.
The detection step is designed to treat the stabilized saliva sample with an TNFα antibody in such a way as to bind essentially all of the TNFα present in the sample. The detection step may involve an immunoassay, such as an ELISA test based on an antigen-antibody reaction using TNFα as the antigen to be measured. For example, the capture antibody may be a polyclonal antibody specific for TNFα. […] In some embodiments the second TNFα antibody may be a monoclonal antibody, such as a mouse monoclonal antibody. Biotin may then be bound to the monoclonal antibody or to a third IgG antibody to which biotin is bound. The biotin levels are detected by first treating with a streptavidin solution linked with horse radish peroxidase (HRP) followed by treatment with a tetramethylbenzidine solution to detect the HRP by reading the resulting color in a spectrophotometer. An ELISA standard concentration graph of target TNFα may be obtained, for example, by absorbance detection, fluorescence detection, luminescence detection, or electrochemical detection. […] Alternatively, the immunoassay may be performed by a method capable of directly or indirectly detecting TNFα. Examples of such alternative methods include MS (Mass Spectrometry), MS/MS, and liquid chromatography.
The invention can be further understood by reference to the following examples, which are provided by way of illustration and are not meant to be limiting. The examples are of human cancer cases that had become cachexic. The patients had salivary TNFα levels ranging from 405 to 462 pg/ml. The TNFα in these cases was restored to normal levels by treatment with DAS (4,4′-diacetoxy-1,1 biphenyl-3,3′ dicarboxylic acid) or APAC for 10-21 days. […] They also support the fact that complement is required for TNFα production.

TNFα [1] = test: Binding of APAC and DAS to TNFα / TNFα peptide
Method: (§1) A 12-mer peptide spot array was synthesized on a cellulose membrane using a Semi-automated AutoSpot robot (INTAVIS, USA) covering the 233 amino acid sequence of TNFα. A total of 112 peptides, each shifted by 2 amino acids were synthesized. The TNFα membrane was soaked in 50% methanol in 10 mM PBS (pH7.4) for 2 minutes, then washed twice with PBS. The membrane was then incubated with 1 mM of APAC or DAS in PBS (10 mM, pH7.4) for one hour at 37° C. After washing 3 times with PBS, positive images were captured with a SYPRO Ruby filter for APAC and an Alexa 680 filter for DAS by the Chemidoc MP imaging System (Bio-Rad, USA).
(§2) A strongly positive peptide sequence was chosen for synthesis of a potential inhibitor of TNFα binding. The sequence of this TNFα-A2 peptide was NH3-YLGGVFQLEKGDRLSA-COOH. It was synthesized using a standard peptide Synthesizer (Liberty Blue, CEM Inc, USA) with Wang Resin and Fmoc amino acids (GL Biochem Ltd, Shanghai, CN). After synthesis, the peptide was purified by HPLC on a C18 column (Quadarupole 6110 LC/MS, Agilent Technology, USA) with a flow phase of 0.5% trifluroacetic acid (TFA) in acetonitrile to 0.05% TFA in H2O. The eluted peptide was detected by ultraviolet light (280 nm). The peptide inhibited binding of APAC to TNFα (FIG. 9) and of DAS to TNFα (FIG. 10).

TNFα [2] = target: TNFα (Homo sapiens, UniProt P01375); test: Binding of APAC and DAS to TNFα / TNFα peptide; settings: 0-5 nmol/ml of DAS and 0-175 nmol/ml of TNFα peptide, FIG. 10
Method: as §1, §2

Compound: NC(=O)NO [hydroxyurea, reference compound]
- salivary TNFα level (salivary TNFα; Example 1, terminal leukemia patient, ten days after APAC discontinued (155 pg/ml on Day 20) and hydroxyurea 500 mg×2/day begun): 228 pg/mL

Compound: TNFα-A2 peptide: synthesized TNFα sequence peptide NH3-YLGGVFQLEKGDRLSA-COOH (H-YLGGVFQLEKGDRLSA-OH)
- binding of APAC to TNFα in presence of the peptide (TNFα [1]; FIG. 9): inhibited
- binding of DAS to TNFα in presence of the peptide (TNFα [1]; FIG. 10): inhibited

Compound: CC(=O)Oc1ccc(-c2ccc(OC(C)=O)c(C(=O)O)c2)cc1C(=O)O [DAS, 4,4′-diacetoxy-1,1 biphenyl-3,3′ dicarboxylic acid]
- binding of DAS to a TNFα peptide as a function of the peptide concentration (TNFα [2]): linear
- symptoms of cachexia (salivary TNFα; Example 4, peritoneal carcinomatosis patient, DAS 3×100 mg/day, Day 12): subsided
- salivary TNFα level (salivary TNFα; Example 4, peritoneal carcinomatosis patient, DAS 3×100 mg/day, nine days into treatment (Day 12)): 161 pg/mL
- salivary TNFα level (salivary TNFα; Example 4, person, stage IV peritoneal carcinomatosis and cachexia, 394 pg/ml Day 0, 406 pg/ml before start, DAS 3×100 mg/day, five days into treatment (Day 8)): 288 pg/mL
- increased salivary TNFα levels of cachexic cancer patients (salivary TNFα; oral intake): rapidly reduced to normal levels
- elevated salivary TNFα over time (salivary TNFα; patient with terminal colon cancer, FIG. 14): reversed

Source: patent US20200121697A1, “METHODS FOR DIAGNOSING AND TREATING CACHEXIA” (Aurin Biotech Inc., priority 2017, published 2020)
